In this experiment the target is T1, human FXR (Homo sapiens, UniProt Q96RI1).
T1 construct: expressed in transfected cells; host or cells: HEK293 cells stably carrying a 5xGal4-response-element firefly luciferase reporter, transiently transfected with pcDNA3.1-Gal4-FXR
T1 sequence (Q96RI1 262-486 limits assumed): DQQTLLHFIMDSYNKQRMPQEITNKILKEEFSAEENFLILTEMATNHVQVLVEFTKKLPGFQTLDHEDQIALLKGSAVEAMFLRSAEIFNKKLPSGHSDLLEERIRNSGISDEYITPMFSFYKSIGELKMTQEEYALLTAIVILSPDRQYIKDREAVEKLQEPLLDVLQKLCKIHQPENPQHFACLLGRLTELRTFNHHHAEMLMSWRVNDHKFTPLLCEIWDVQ
Kind of experiment: transient human FXR/Gal4-luciferase reporter assay. It counts as cell-based. The following applies: Gal4-hFXR LBD fusion, luciferase reporter in HEK293 cells; response relative to 8 μM GW-4064. Here is the method:
A Gal4-hFXR fusion construct reporter system was used as the primary assay to characterize compound activity. A construct including 5 copies of the Gal4 promoter response element upstream of a firefly luciferase reporter cDNA was stably expressed in HEK293 cells. This reporter cell line was maintained in Dulbecco's Modified Eagle's medium (DMEM; Gibco) supplemented with 1% penicillin-streptomycin (P/S) solution, 500 μg/mL Zeocin and 10% charcoal/dextran-treated fetal bovine serum (cs-FBS) at 37° C. in a humidified 5% CO2 atmosphere. […] The day prior to transfection, the reporter cells in culture are detached from the plate with trypsin and plated into a T75 flask at a sufficient density to achieve approximately 90% confluence the next morning. […] The mixture is further diluted with 10 mL of a solution comprised of DMEM, 10% cs-FBS, and 1% P/S immediately prior to transferring to the cells. The maintenance culture media is aspirated from the cells and the final transfection mixture is added before the cells are incubated overnight at 37° C. in a humidified 5% CO2 atmosphere. This protocol can be scaled up, and the transiently transfected cells can be cryopreserved in an assay-ready format. For compound testing, 100 nL of the compounds (serial dilutions in DMSO) are dispensed with an Echo acoustic dispenser (Labcyte) into the wells of a Corning/Costar clear bottom 384-well white plate. The transfected cells are harvested, counted, and diluted such that 10-25,000 cells in 25 μL are plated into each well of the 384-well compound assay plate. The compound-treated cells are incubated overnight at 37° C. in a humidified 5% CO2 atmosphere. The next morning 25 μL of Steady-Glo (Promega) are added to each well of the plate, the mixture is incubated for 15 min. with shaking, and luminescence is measured on an Envision (Perkin Elmer) plate reader.
(Reporter assays use an easily measured gene product as a stand-in for the process of interest.)

Usually EC50 stands for the midpoint of the concentration-response curve.

The molecule `CC(C)(C)c1noc(C23CCC(CN(C(=O)C4CCC(F)(F)CC4)c4cccc(-c5cc(C6CC6)no5)c4)(CC2)CC3)n1` [Example 147, N-((4-(3-(tert-butyl)-1,2,4-oxadiazol-5-yl)bicyclo[2.2.2]octan-1-yl)methyl)-N-(3-(3-cyclopropylisoxazol-5-yl)phenyl)-4,4-difluorocyclohexane-1-carboxamide] showed an EC50 of 205 nM.

With `CCc1noc(-c2cccc(N(CC34CCC(c5nc(C6CC6)no5)(CC3)CC4)C(=O)C3CCC(F)(F)CC3)c2)n1` [Example 5, N-((4-(3-cyclopropyl-1,2,4-oxadiazol-5-yl)bicyclo[2.2.2]octan-1-yl)methyl)-N-(3-(3-ethyl-1,2,4-oxadiazol-5-yl)phenyl)-4,4-difluorocyclohexane-1-carboxamide], the response was half-maximal at 799 nM (EC50).

Consider `CC1(C)CCCN(C(=O)N(CC23CCC(c4nc(C5CC5)no4)(CC2)CC3)c2cccc(-c3nc(C4CC4)no3)c2)C1` (racemic) [Example 62, N-((4-(3-cyclopropyl-1,2,4-oxadiazol-5-yl)bicyclo[2.2.2]octan-1-yl)methyl)-N-(3-(3-cyclopropyl-1,2,4-oxadiazol-5-yl)phenyl)-3,3-dimethylpiperidine-1-carboxamide], for which the EC50 came to 3810 nM.

The molecule `CC(F)(F)c1nc(C23CCC(CN(C(=O)C4CCC(F)(F)CC4)c4cccc(-c5nc(C6CC6)no5)c4)(CC2)CC3)no1` [Example 112, N-(3-(3-cyclopropyl-1,2,4-oxadiazol-5-yl)phenyl)-N-((4-(5-(1,1-difluoroethyl)-1,2,4-oxadiazol-3-yl)bicyclo[2.2.2]octan-1-yl)methyl)-4,4-difluorocyclohexane-1-carboxamide] had an EC50 of 142 nM.

On to `O=C(C1CCCOC1)N(CC12CCC(c3nc(C4CC4)no3)(CC1)CC2)c1cccc(-c2nc3cc(F)ccc3o2)c1` (racemic) [Example 92, N-((4-(3-cyclopropyl-1,2,4-oxadiazol-5-yl)bicyclo[2.2.2]octan-1-yl)methyl)-N-(3-(5-fluorobenzo[d]oxazol-2-yl)phenyl)tetrahydro-2H-pyran-3-carboxamide], for which the midpoint of the response, the EC50, lay at 589 nM.

Turning to `CCOc1ccc(-c2cc(N(CC34CCC(c5nc(C(C)(C)C)no5)(CC3)CC4)C(=O)C3CCC(C)(O)CC3)ccc2F)cc1` (centres unmarked) [Example 166, N-((4-(3-(tert-butyl)-1,2,4-oxadiazol-5-yl)bicyclo[2.2.2]octan-1-yl)methyl)-N-(4′-ethoxy-6-fluoro-[1,1′-biphenyl]-3-yl)-4-hydroxy-4-methylcyclohexane-1-carboxamide], it took 1080 nM to reach a half-maximal effect (EC50).

As to `Cn1nc(C23CCC(CN(C(=O)C4CCCOC4)c4cccc(-c5nc(C6CC6)no5)c4)(CC2)CC3)cc1C1CC1` (racemic) [Example 67, N-(3-(3-cyclopropyl-1,2,4-oxadiazol-5-yl)phenyl)-N-((4-(5-cyclopropyl-1-methyl-1H-pyrazol-3-yl)bicyclo[2.2.2]octan-1-yl)methyl)tetrahydro-2H-pyran-3-carboxamide], the EC50 came out at 256 nM.

`O=C(N1CCCC(CO)C1)N(CC12CCC(c3nc(C4CC4)no3)(CC1)CC2)c1cccc(-c2nc(C3CC3)no2)c1` (racemic) [Example 65, N-((4-(3-cyclopropyl-1,2,4-oxadiazol-5-yl)bicyclo[2.2.2]octan-1-yl)methyl)-N-(3-(3-cyclopropyl-1,2,4-oxadiazol-5-yl)phenyl)-3-(hydroxymethyl)piperidine-1-carboxamide] had an EC50 of 740 nM.

`CCOc1ccc(-c2cccc(N(CC34CCC(c5nc(C(C)(C)C)no5)(CC3)CC4)C(=O)C3CCC(OC)CC3)c2)cc1` (single isomer, unassigned) [Example 146, N-((4-(3-(tert-butyl)-1,2,4-oxadiazol-5-yl)bicyclo[2.2.2]octan-1-yl)methyl)-N-(4′-ethoxy-[1,1′-biphenyl]-3-yl)-4-methoxycyclohexane-1-carboxamide] displayed an EC50 of 402 nM.

`O=C(C1CCC(F)(F)CC1)N(CC12CCC(c3nc(C4CC4)no3)(CC1)CC2)c1cccc(-c2cnc(C3CC3)o2)c1` [Example 26, N-((4-(3-cyclopropyl-1,2,4-oxadiazol-5-yl)bicyclo[2.2.2]octan-1-yl)methyl)-N-(3-(2-cyclopropyloxazol-5-yl)phenyl)-4,4-difluorocyclohexane-1-carboxamide] came in with an EC50 of 355 nM.

As to `O=C(C1CCCOC1)N(CC12CCC(c3nc(C4CC4)no3)(CC1)CC2)c1cccc(-c2nc(C3CC3)no2)c1` (racemic) [Example 16, N-((4-(3-cyclopropyl-1,2,4-oxadiazol-5-yl)bicyclo[2.2.2]octan-1-yl)methyl)-N-(3-(3-cyclopropyl-1,2,4-oxadiazol-5-yl)phenyl)tetrahydro-2H-pyran-3-carboxamide], a half-maximal effect (EC50) was put at 226 nM.

Consider `CCOc1ccc(-c2cc(N(CC34CCC(c5noc(C(C)(F)F)n5)(CC3)CC4)C(=O)C3CCC(O)(C(F)(F)F)CC3)ccc2F)cc1` (single isomer, unassigned) [Example 165, N-((4-(5-(1,1-difluoroethyl)-1,2,4-oxadiazol-3-yl)bicyclo[2.2.2]octan-1-yl)methyl)-N-(4′-ethoxy-6-fluoro-[1,1′-biphenyl]-3-yl)-4-hydroxy-4-(trifluoromethyl)cyclohexane-1-carboxamide], for which the EC50 was 263 nM.

The molecule `CCOc1ncc(-c2cc(N(CC34CCC(c5noc(C(C)(F)F)n5)(CC3)CC4)C(=O)C3CCC(F)(F)CC3)ccc2F)cn1` [Example 106, N-((4-(5-(1,1-difluoroethyl)-1,2,4-oxadiazol-3-yl)bicyclo[2.2.2]octan-1-yl)methyl)-N-(3-(2-ethoxypyrimidin-5-yl)-4-fluorophenyl)-4,4-difluorocyclohexane-1-carboxamide] showed an EC50 of 406 nM.

The molecule `O=C(C1CCOCC1)N(CC12CCC(c3nc(C4CC4)no3)(CC1)CC2)c1cccc(-c2ccnc(OC3CC3)n2)c1` [Example 86, N-(3-(2-cyclopropoxypyrimidin-4-yl)phenyl)-N-((4-(3-cyclopropyl-1,2,4-oxadiazol-5-yl)bicyclo[2.2.2]octan-1-yl)methyl)tetrahydro-2H-pyran-4-carboxamide] gave an EC50 of 2470 nM.

For `O=C(C1CCOCC1)N(CC12CCC(c3nc(C4CC4)no3)(CC1)CC2)c1cccc(-c2cc(C3CC3)no2)c1` [Example 153, N-((4-(3-cyclopropyl-1,2,4-oxadiazol-5-yl)bicyclo[2.2.2]octan-1-yl)methyl)-N-(3-(3-cyclopropylisoxazol-5-yl)phenyl)tetrahydro-2H-pyran-4-carboxamide], the EC50 is 57 nM.

For the molecule `COc1cccc(-c2cccc(N(C(=O)C3CCCCC3)C(C)C34CCC(c5nc(C)no5)(CC3)CC4)c2)c1` (single isomer, unassigned) [Example 94, N-(3′-methoxy-[1,1′-biphenyl]-3-yl)-N-(1-(4-(3-methyl-1,2,4-oxadiazol-5-yl)bicyclo[2.2.2]octan-1-yl)ethyl)cyclohexanecarboxamide], the EC50 was 3940 nM.

`CC(F)(F)c1nc(C23CCC(CN(C(=O)C4CCC(F)(F)CC4)c4cccc(-c5ccc(S(C)(=O)=O)cc5)c4)(CC2)CC3)no1` [Example 130, N-((4-(5-(1,1-difluoroethyl)-1,2,4-oxadiazol-3-yl)bicyclo[2.2.2]octan-1-yl)methyl)-4,4-difluoro-N-(4′-(methylsulfonyl)-[1,1′-biphenyl]-3-yl)cyclohexane-1-carboxamide]: it took 205 nM to reach a half-maximal effect (EC50). This EC50 lies about 19-fold lower than the previous one.
